The record followed here is patent publication US20240116985A1, “STAPLED PEPTIDES AND METHODS THEREOF” (priority 2020, published 2024).

≈ marks a conversion by molar mass, not a printed value. Like-named read-outs stand apart in the source and are kept apart here.

Data set [1] has as its target T1, beta-catenin/TCF4 engagement (Homo sapiens, UniProt P35222).
T1 construct: expressed in transfected cells; host or cells: HEK293
T1 sequence (P35222 1-781): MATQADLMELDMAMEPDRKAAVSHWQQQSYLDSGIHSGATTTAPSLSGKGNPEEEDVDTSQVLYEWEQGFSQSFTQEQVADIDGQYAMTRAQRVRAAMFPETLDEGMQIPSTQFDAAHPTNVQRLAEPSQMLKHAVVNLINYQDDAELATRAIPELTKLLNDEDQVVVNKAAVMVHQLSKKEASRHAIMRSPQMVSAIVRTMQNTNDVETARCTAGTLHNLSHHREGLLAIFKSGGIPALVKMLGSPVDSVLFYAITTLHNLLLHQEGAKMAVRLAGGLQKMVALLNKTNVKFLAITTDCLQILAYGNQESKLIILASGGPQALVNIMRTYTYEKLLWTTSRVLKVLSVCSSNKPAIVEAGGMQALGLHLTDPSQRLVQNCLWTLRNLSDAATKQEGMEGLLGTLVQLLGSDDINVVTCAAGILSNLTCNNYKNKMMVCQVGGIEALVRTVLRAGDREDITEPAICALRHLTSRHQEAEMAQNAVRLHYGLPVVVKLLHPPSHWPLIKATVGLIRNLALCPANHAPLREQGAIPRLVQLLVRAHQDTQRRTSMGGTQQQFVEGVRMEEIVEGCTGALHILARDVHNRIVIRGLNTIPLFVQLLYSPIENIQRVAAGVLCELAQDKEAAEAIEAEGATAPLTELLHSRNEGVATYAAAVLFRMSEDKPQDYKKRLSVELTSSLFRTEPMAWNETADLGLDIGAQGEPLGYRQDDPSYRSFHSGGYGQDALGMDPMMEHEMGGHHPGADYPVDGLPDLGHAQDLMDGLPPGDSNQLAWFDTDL
Put plainly: Nano-BRET target engagement assay (B-cat-Halo & TCF4-Luc in HEK293 cells). The format is cell-based. Conditions: absolute IC50; read-out: NanoBRET Abs IC50.

The target in data set [2] is T2, full-length beta-Catenin (Uniprot ID P35222) (Homo sapiens, UniProt P35222).
T2 construct: 10 nM full-length beta-Catenin (Uniprot ID P35222)
T2 sequence (P35222 1-781): T1 sequence (P35222 1-781)
Put plainly: Fluorescence polarization IC50 (beta-catenin / 5FAM-TCF4 10-53 competition). The format is binding.

A short description of data set [3]: Solubility in PBS. It counts as physicochemical. An outline of the steps:
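PBS sample ultracentrifuged; supernatant run on HPLC vs. 50 μM peptide in DMSO standard. Solubility = (PBS peak area / DMSO peak area) × 50 uM.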

Where [4] appears, read: fluorescence polarization, read-out: beta-Catenin FP IC50.

On to `CC(=O)N1CCC[C@]12CC=CCCCC1(CCCC=CCCCOC(=O)N3CC[C@@](C(=O)N[C@@H](Cc4ccccc4Cl)C(=O)N[C@@H](Cc4csc5ccccc45)C(=O)N[C@@H](CCCCNC(C)C)C(N)=O)(C3)NC(=O)[C@H](CC(N)=O)NC(=O)[C@H](Cc3ccccc3)NC(=O)[C@H](C)NC(=O)[C@H](C)NC(=O)[C@H](CC(=O)O)NC(=O)[C@H](CC(=O)O)NC1=O)NC(=O)[C@H](CC(C)(C)C)NC(=O)[C@H](CC(=O)O)NC2=O` (stereo partly drawn) [I-1130, Ac-PL3-Asp-Npg-B5-Asp-Asp-Ala-Ala-Phe-Asn-PyrS2-2C1F-BztA-iPrLys-NH2], for which the IC50 in data set [1] was 7.6 µM; in data set [2] (read-out: beta-Catenin FP IC50) it was 6 nM. In data set [3] (Solubility (uM)), this molecule had a Solubility of 15 µM (≈ 29.8 µg/mL).

On to `CC(=O)N1CCC[C@]12CC=CCCCC1(CCCC=CCCCOC(=O)N3CC[C@@](C(=O)N[C@@H](Cc4ccccc4Cl)C(=O)N[C@@H](Cc4csc5ccccc45)C(=O)N[C@@H](CCC(N)=O)C(N)=O)(C3)NC(=O)[C@H](CC(N)=O)NC(=O)[C@H](Cc3ccccc3)NC(=O)[C@H](C)NC(=O)[C@H](CCCCNC(C)C)NC(=O)[C@H](CC(=O)O)NC(=O)[C@H](CC(=O)O)NC1=O)NC(=O)[C@H](CC(C)(C)C)NC(=O)[C@H](CC(=O)O)NC2=O` (stereo partly drawn) [I-1131, Ac-PL3-Asp-Npg-B5-Asp-Asp-iPrLys-Ala-Phe-Asn-PyrS2-2C1F-BztA-Gln-NH2], for which the IC50 in data set [1] worked out at 18.8 µM; in data set [2] (read-out: beta-Catenin FP IC50), 7 nM. Also, the Solubility in data set [3] (Solubility (uM)) worked out at 39 µM (≈ 79.8 µg/mL).

For `CC(C)C[C@@H]1NC(=O)[C@H](Cc2ccccc2)NC(=O)[C@H](C)NC(=O)[C@H](C)NC(=O)[C@H](CC(=O)O)NC(=O)[C@H](CC(=O)O)NC(=O)C2(CCCC=CCCCOC(=O)N3CC[C@@](C(=O)N[C@@H](Cc4ccccc4)C(=O)N[C@@H](Cc4csc5ccccc45)C(=O)N[C@@H](CCC(N)=O)C(N)=O)(C3)NC1=O)CCCC=CC[C@]1(CCCN1C(=O)CCCN(C)C)C(=O)N[C@@H](CC(=O)O)C(=O)N[C@@H](CC(C)(C)C)C(=O)N2` (stereo partly drawn) [I-1359, NdiMeButC-PL3-Asp-Npg-B5-Asp-Asp-Ala-Ala-Phe-Leu-PyrS2-Phe-BztA-Gln-NH2], the IC50 came to 88 nM in data set [2] (fluorescence polarization, beta-catenin, read-out: FP EC50) and 88 nM in data set [2] (setting [4]). The “Solubility” value in data set [3] is 34 µM (≈ 67.4 µg/mL).

Turning to `CC(=O)N1CCC[C@]12CC=CCCCC1(CCCC=CCCCOC(=O)N3CC[C@@](C(=O)N[C@@H](Cc4ccccc4)C(=O)N[C@@H](Cc4csc5ccccc45)C(=O)N[C@@H](CCC(N)=O)C(N)=O)(C3)NC(=O)[C@H](CC(C)C)NC(=O)[C@H](Cc3ccccc3)NC(=O)[C@H](C)NC(=O)[C@H](CCCCNC(C)C)NC(=O)[C@H]([C@@H](C)O)NC(=O)[C@H](CC(N)=O)NC1=O)NC(=O)[C@H](C)NC(=O)[C@H](CC(=O)O)NC2=O` (stereo partly drawn) [I-1376, Ac-PL3-Asp-Ala-B5-Asn-Thr-iPrLys-Ala-Phe-Leu-PyrS2-Phe-BztA-Gln-NH2], the IC50 in data set [2] (setting [4]) came out at 4210 nM. The “Solubility” value in data set [3] is 10 µM (≈ 19.4 µg/mL).

`CC(=O)N1CCC[C@]12CC=CCCCC1(CCCC=CCCCOC(=O)N3CC[C@@](C(=O)N[C@@H](Cc4ccccc4)C(=O)N[C@@H](Cc4csc5ccccc45)C(=O)N[C@@H](CCCCN)C(N)=O)(C3)NC(=O)[C@H](CC(C)C)NC(=O)[C@H](Cc3ccccc3)NC(=O)[C@H](C)NC(=O)[C@H](CCCCNC(C)C)NC(=O)[C@H]([C@@H](C)O)NC(=O)[C@H](CC(N)=O)NC1=O)NC(=O)[C@H](C)NC(=O)[C@H](CC(=O)O)NC2=O` (stereo partly drawn) [I-1377, Ac-PL3-Asp-Ala-B5-Asn-Thr-iPrLys-Ala-Phe-Leu-PyrS2-Phe-BztA-Lys-NH2]: the IC50 in data set [2] (setting [4]) turned out to be 1000 nM. The “Solubility” value in data set [3] was determined as 10 µM (≈ 19.4 µg/mL).

As for `CC(=O)N1CCC[C@]12CC=CCCCC1(CCCC=CCCCOC(=O)N3CC[C@@](C(=O)N[C@@H](Cc4ccccc4)C(=O)N[C@@H](Cc4csc5ccccc45)C(=O)N[C@H](C(N)=O)[C@@H](C)O)(C3)NC(=O)[C@H](CC(C)C)NC(=O)[C@H](Cc3ccccc3)NC(=O)[C@H](C)NC(=O)[C@H](CCCCNC(C)C)NC(=O)[C@H]([C@@H](C)O)NC(=O)[C@H](CC(N)=O)NC1=O)NC(=O)[C@H](C)NC(=O)[C@H](CC(=O)O)NC2=O` (stereo partly drawn) [I-1378, Ac-PL3-Asp-Ala-B5-Asn-Thr-iPrLys-Ala-Phe-Leu-PyrS2-Phe-BztA-Thr-NH2], the IC50 in data set [2] (setting [4]) was 6170 nM. In addition, in data set [3], the “Solubility” value came to 10 µM (≈ 19.1 µg/mL).

For the molecule `CC(=O)N1CCC[C@]12CC=CCCCC1(CCCC=CCCCOC(=O)N3CC[C@@](C(=O)N[C@@H](Cc4ccccc4)C(=O)N[C@@H](Cc4csc5ccccc45)C(=O)N[C@@H](CCC(N)=O)C(N)=O)(C3)NC(=O)[C@H](CC(C)C)NC(=O)[C@H](Cc3ccccc3)NC(=O)[C@H](C)NC(=O)[C@H](CCCCNC(C)C)NC(=O)[C@H](CCC(N)=O)NC(=O)[C@H](CC(N)=O)NC1=O)NC(=O)[C@H](C)NC(=O)[C@H](CC(=O)O)NC2=O` (stereo partly drawn) [I-1379, Ac-PL3-Asp-Ala-B5-Asn-Gln-iPrLys-Ala-Phe-Leu-PyrS2-Phe-BztA-Gln-NH2], the IC50 in data set [2] (setting [4]) was 1440 nM. Besides, the “Solubility” value in data set [3] was determined as 10 µM (≈ 19.7 µg/mL).

For the molecule `CC(=O)N1CCC[C@]12CC=CCCCC1(CCCC=CCCCOC(=O)N3CC[C@@](C(=O)N[C@@H](Cc4ccccc4)C(=O)N[C@@H](Cc4csc5ccccc45)C(=O)N[C@@H](CCC(N)=O)C(N)=O)(C3)NC(=O)[C@H](CC(C)C)NC(=O)[C@H](Cc3ccccc3)NC(=O)[C@H](C)NC(=O)[C@H](CCCCNC(C)C)NC(=O)[C@H]([C@@H](C)O)NC(=O)[C@H](CC(=O)O)NC1=O)NC(=O)[C@H](C)NC(=O)[C@H](CC(N)=O)NC2=O` (stereo partly drawn) [I-1382, Ac-PL3-Asn-Ala-B5-Asp-Thr-iPrLys-Ala-Phe-Leu-PyrS2-Phe-BztA-Gln-NH2], the IC50 in data set [2] (setting [4]) came to 2850 nM. In addition, the “Solubility” value in data set [3] was found to be 10 µM (≈ 19.4 µg/mL).

For the molecule `CC(=O)N1CCC[C@]12CC=CCCCC1(CCCC=CCCCOC(=O)N3CC[C@@](C(=O)N[C@@H](Cc4ccccc4)C(=O)N[C@@H](Cc4csc5ccccc45)C(=O)N[C@@H](CCCCN)C(N)=O)(C3)NC(=O)[C@H](CC(C)C)NC(=O)[C@H](Cc3ccccc3)NC(=O)[C@H](C)NC(=O)[C@H](CCCCNC(C)C)NC(=O)[C@H]([C@@H](C)O)NC(=O)[C@H](CC(=O)O)NC1=O)NC(=O)[C@H](C)NC(=O)[C@H](CC(N)=O)NC2=O` (stereo partly drawn) [I-1383, Ac-PL3-Asn-Ala-B5-Asp-Thr-iPrLys-Ala-Phe-Leu-PyrS2-Phe-BztA-Lys-NH2], the IC50 in data set [2] (setting [4]) came out at 1660 nM. The “Solubility” value in data set [3] was found to be 10 µM (≈ 19.4 µg/mL).

As for `CC(=O)N1CCC[C@]12CC=CCCCC1(CCCC=CCCCOC(=O)N3CC[C@@](C(=O)N[C@@H](Cc4ccccc4)C(=O)N[C@@H](Cc4csc5ccccc45)C(=O)N[C@@H](CCC(N)=O)C(N)=O)(C3)NC(=O)[C@H](CC(C)C)NC(=O)[C@H](Cc3ccccc3)NC(=O)[C@H](C)NC(=O)[C@H](CCCCNC(C)C)NC(=O)[C@H](CCC(N)=O)NC(=O)[C@H](CC(=O)O)NC1=O)NC(=O)[C@H](C)NC(=O)[C@H](CC(N)=O)NC2=O` (stereo partly drawn) [I-1385, Ac-PL3-Asn-Ala-B5-Asp-Gln-iPrLys-Ala-Phe-Leu-PyrS2-Phe-BztA-Gln-NH2], the IC50 in data set [2] (setting [4]) is 1080 nM. Besides, the “Solubility” value in data set [3] was found to be 10 µM (≈ 19.7 µg/mL).

On to `CC(=O)N1CCC[C@]12CC=CCCCC1(CCCC=CCCCOC(=O)N3CC[C@@](C(=O)N[C@@H](Cc4ccccc4)C(=O)N[C@@H](Cc4csc5ccccc45)C(=O)N[C@@H](CCC(N)=O)C(N)=O)(C3)NC(=O)[C@H](CC(C)C)NC(=O)[C@H](Cc3ccccc3)NC(=O)[C@H](C)NC(=O)[C@H](CCCCNC(C)C)NC(=O)[C@H](CCCCN)NC(=O)[C@H](CC(=O)O)NC1=O)NC(=O)[C@H](C)NC(=O)[C@H](CC(N)=O)NC2=O` (stereo partly drawn) [I-1386, Ac-PL3-Asn-Ala-B5-Asp-Lys-iPrLys-Ala-Phe-Leu-PyrS2-Phe-BztA-Gln-NH2], for which the IC50 in data set [2] (setting [4]) came out at 2250 nM. Besides, the “Solubility” value in data set [3] was determined as 10 µM (≈ 19.7 µg/mL).

In the case of `CC(=O)N1CCC[C@]12CC=CCCCC1(CCCC=CCCCOC(=O)N3CC[C@@](C(=O)N[C@@H](Cc4ccccc4)C(=O)N[C@@H](Cc4ccc5ccccc5c4)C(=O)N[C@@H](CCC(N)=O)C(N)=O)(C3)NC(=O)[C@H](CC(C)C)NC(=O)[C@H](Cc3ccccc3)NC(=O)[C@H](C)NC(=O)[C@H](CCCCNC(C)C)NC(=O)[C@H]([C@@H](C)O)NC(=O)[C@H](CC(=O)O)NC1=O)NC(=O)[C@H](C)NC(=O)[C@H](CC(N)=O)NC2=O` (stereo partly drawn) [I-1387, Ac-PL3-Asn-Ala-B5-Asp-Thr-iPrLys-Ala-Phe-Leu-PyrS2-Phe-2NapA-Gln-NH2], the IC50 in data set [2] (setting [4]) turned out to be 6940 nM. In addition, the “Solubility” value in data set [3] came to 10 µM (≈ 19.3 µg/mL).
